Data: publication PMC10013843 (Molecular psychiatry, 2022)

Tests used:
[1] = test system: rats; details: cited from earlier work
[2] = molecular target: kappa-opioid receptors, KOR (Rattus norvegicus, UniProt P34975); details: cited from earlier work
[3] = test system: rats; details: cited from earlier work; remark: listed apart in the source
[4] = molecular target: mu-opioid receptors, MOR (Rattus norvegicus, UniProt P33535); details: cited from earlier work
[5] = test system: MOR and KOR; details: cited from earlier work
[6] = test system: rats; assay: Heroin self-administration and substitution; assay type: in vivo, rat; details: 0.5 mg/kg/inf IV
[7] = molecular target: T1, HCN1 channel (Homo sapiens, UniProt O60741); assay: HCN1 channel functional interaction; assay type: biochemical
T1 sequence (O60741 1-890): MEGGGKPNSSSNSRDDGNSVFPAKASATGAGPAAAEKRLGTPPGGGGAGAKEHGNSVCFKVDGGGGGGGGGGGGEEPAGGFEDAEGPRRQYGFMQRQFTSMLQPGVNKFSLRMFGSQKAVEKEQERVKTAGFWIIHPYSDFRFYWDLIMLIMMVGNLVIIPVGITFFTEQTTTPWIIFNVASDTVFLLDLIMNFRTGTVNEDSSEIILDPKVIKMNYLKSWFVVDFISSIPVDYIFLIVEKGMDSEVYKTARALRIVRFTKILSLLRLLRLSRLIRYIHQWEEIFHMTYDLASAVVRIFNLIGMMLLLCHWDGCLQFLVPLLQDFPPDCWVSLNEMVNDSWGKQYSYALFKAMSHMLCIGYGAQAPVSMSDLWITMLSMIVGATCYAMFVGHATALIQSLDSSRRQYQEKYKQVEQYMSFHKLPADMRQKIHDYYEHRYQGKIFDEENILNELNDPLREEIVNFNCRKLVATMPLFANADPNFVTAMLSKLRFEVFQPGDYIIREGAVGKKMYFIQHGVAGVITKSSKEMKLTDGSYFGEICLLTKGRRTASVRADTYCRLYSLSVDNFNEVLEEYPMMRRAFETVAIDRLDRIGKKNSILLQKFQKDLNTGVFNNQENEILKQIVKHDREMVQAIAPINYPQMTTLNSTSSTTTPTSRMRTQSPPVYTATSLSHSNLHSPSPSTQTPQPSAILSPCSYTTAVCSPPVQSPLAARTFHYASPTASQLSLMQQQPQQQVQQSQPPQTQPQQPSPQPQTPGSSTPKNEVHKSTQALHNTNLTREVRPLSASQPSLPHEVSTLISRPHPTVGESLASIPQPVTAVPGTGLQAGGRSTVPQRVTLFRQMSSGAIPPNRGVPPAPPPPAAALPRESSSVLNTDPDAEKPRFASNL

[8] = molecular target: T1, HCN1 channel; details: cited from earlier work
[9] = molecular target: sigma-1 receptors (Rattus norvegicus, UniProt Q9R0C9); details: cited from earlier work
Sequence of sigma-1 receptors (Q9R0C9 whole entry): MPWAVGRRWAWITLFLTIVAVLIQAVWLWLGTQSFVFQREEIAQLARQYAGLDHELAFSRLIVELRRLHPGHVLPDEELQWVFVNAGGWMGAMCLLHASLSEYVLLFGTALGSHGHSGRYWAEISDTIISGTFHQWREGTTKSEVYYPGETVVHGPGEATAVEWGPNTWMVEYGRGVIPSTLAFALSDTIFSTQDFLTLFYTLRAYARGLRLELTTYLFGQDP

[10] = molecular target: MOR (OPRM1) (Homo sapiens, UniProt P35372); details: cited from earlier work
Sequence of MOR (OPRM1) (P35372 whole entry): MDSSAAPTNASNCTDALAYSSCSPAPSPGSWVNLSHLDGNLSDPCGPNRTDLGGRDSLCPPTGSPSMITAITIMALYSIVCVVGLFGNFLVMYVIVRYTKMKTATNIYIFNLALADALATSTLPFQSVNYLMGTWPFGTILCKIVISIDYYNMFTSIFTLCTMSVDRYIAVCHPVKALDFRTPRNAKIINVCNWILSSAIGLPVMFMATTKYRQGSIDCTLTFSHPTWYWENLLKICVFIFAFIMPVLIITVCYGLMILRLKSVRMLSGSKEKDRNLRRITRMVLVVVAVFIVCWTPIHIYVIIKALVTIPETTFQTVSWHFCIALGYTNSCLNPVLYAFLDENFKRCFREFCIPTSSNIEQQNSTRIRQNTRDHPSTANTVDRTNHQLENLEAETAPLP

[11] = molecular target: KOR (OPRK1) (Homo sapiens, UniProt P41145); details: cited from earlier work
Sequence of KOR (OPRK1) (P41145 whole entry): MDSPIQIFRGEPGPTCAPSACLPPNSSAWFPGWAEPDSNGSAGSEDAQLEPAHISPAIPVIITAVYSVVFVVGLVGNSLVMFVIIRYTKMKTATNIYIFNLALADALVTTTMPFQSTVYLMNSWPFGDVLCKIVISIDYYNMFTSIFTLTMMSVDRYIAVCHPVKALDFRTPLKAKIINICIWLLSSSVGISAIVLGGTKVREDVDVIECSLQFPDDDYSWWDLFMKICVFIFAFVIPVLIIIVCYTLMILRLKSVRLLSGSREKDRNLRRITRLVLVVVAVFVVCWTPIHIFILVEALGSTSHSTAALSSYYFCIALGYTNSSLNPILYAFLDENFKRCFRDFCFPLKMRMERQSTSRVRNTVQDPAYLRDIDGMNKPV

Sequence of mu-opioid receptors, MOR (P33535 whole entry): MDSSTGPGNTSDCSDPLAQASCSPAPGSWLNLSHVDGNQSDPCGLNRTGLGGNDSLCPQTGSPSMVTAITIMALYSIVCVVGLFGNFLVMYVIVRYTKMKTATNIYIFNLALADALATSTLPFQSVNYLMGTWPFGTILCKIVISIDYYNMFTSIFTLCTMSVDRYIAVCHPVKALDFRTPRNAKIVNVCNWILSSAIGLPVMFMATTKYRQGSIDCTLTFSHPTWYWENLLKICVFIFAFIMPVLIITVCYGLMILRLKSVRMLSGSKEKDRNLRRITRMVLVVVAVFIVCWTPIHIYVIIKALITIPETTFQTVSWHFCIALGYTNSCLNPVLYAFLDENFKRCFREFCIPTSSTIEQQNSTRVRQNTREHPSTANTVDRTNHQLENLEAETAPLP
Sequence of kappa-opioid receptors, KOR (P34975 whole entry): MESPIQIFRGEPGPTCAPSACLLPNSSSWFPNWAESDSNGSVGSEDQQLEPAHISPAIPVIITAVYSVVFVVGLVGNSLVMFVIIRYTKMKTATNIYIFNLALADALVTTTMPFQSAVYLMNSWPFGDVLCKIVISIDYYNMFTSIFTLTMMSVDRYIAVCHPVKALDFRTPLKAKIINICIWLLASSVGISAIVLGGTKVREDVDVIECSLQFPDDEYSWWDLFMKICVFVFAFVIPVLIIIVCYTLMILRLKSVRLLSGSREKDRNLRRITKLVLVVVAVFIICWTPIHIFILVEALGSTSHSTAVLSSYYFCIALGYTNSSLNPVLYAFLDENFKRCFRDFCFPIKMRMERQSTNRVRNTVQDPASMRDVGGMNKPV

Q: With `N[C@@]1(c2ccccc2Cl)CCC[C@@H](O)C1=O` [(2S,6S;2R,6R)-HNK, (2S,6S;2R,6R)-Hydroxynorketamine] as the compound, how does the “effect on acute morphine nociception or tolerance” value [1] read?
A: no effect

Q: With `CN[C@]1(c2ccccc2Cl)CCCCC1=O` [(S)-ketamine] as the compound, how does the “binding to kappa (KOR) opioid receptors” value [2] read?
A: bind

Q: And the self-administration in rats [3]?
A: is self-administered

Q: And the “binding to mu (MOR) opioid receptors” value [4]?
A: bind

Q: And the β-arrestin signaling [5]?
A: do not activate

Q: And the “pressing on first session after heroin substitution” value [6]?
A: increased their pressing

Q: And the “self-administration on successive sessions after heroin substitution” value [6]?
A: escalation of self-administration

Q: For `CNC1(c2ccccc2Cl)CCCCC1=O` (racemic) [ketamine, (R,S)-ketamine], which “interaction with the HCN1 channel” value [7] is on record?
A: neither (2R,6R)-HNK nor ketamine interacted

Q: And the “effect on HCN1 channels” value [8]?
A: inhibit

Q: And the “binding to sigma receptors” value [9]?
A: weak binding

Q: With `CN[C@@]1(c2ccccc2Cl)CCCCC1=O` [(R)-ketamine] as the compound, how does the “MOR signaling, inhibition of cAMP accumulation” value [10] read?
A: partial agonists

Q: And the “binding to kappa (KOR) opioid receptors” value [2]?
A: bind

Q: And the “KOR signaling, inhibition of cAMP accumulation” value [11]?
A: partial agonists

Q: What about the “binding to mu (MOR) opioid receptors” value [4] of the same compound?
A: bind

Q: What about the β-arrestin signaling [5] of the same compound?
A: do not activate
